In assay [1] the target is T1, recombinant human Dopamine Subtype D2s receptors (Homo sapiens, UniProt P14416).
T1 construct: purchased Perkin Elmer
The experiment in a line: Dopamine D2 selectivity assay, [3H]-spiperone binding to membranes. Particulars: read-out: D2 bind pIC50 (converted). On the procedure:
Membranes containing recombinant human Dopamine Subtype D2s receptors were obtained from Perkin Elmer. These were diluted in Assay Buffer (50 mM HEPES, […], 120 mM NaCl, 0.1% gelatin, pH 7.4) to provide a final concentration of membranes that gave a clear window between maximum and minimum specific binding.
Assays were performed in U-bottomed 96-well polypropylene plates. 30 μL [^3H]-spiperone (0.16 nM final concentration) and 30 μL of test compound (10× final concentration) were added to each test well. For each assay plate 8 replicates were obtained for [^3H]-spiperone binding in the presence of 30 μL vehicle (10% (v/v) DMSO in Assay Buffer; defining maximum binding) or 30 μL Haloperidol (10 μM final concentration; defining non-specific binding (NSB)). Membranes were then added to achieve a final volume of 300 μL. The plates were incubated for 2 hours at room temperature and then filtered onto PEI coated GF/B filter plates, pre-soaked for 1 hour in Assay Buffer, using a 96-well plate Tomtec cell harvester. Five washes with 250 μL wash buffer (50 mM HEPES, 1 mM EDTA, 120 mM NaCl, pH 7.4) were performed at 4° C. to remove unbound radioactivity. The plates were dried then sealed from underneath using Packard plate sealers and MicroScint-O (50 μL) was added to each well. The plates were sealed (TopSeal A) and filter-bound radioactivity was measured with a scintillation counter (TopCount, Packard BioScience) using a 3-minute counting protocol.
Total specific binding (B0) was determined by subtracting the mean NSB from the mean maximum binding. NSB values were also subtracted from values from all other wells.

The target of assay [2] is T2, β2 receptor (Homo sapiens, UniProt P07550).
T2 construct: endogenous in cells; host or cells: H292 cells
T2 sequence (P07550 whole entry): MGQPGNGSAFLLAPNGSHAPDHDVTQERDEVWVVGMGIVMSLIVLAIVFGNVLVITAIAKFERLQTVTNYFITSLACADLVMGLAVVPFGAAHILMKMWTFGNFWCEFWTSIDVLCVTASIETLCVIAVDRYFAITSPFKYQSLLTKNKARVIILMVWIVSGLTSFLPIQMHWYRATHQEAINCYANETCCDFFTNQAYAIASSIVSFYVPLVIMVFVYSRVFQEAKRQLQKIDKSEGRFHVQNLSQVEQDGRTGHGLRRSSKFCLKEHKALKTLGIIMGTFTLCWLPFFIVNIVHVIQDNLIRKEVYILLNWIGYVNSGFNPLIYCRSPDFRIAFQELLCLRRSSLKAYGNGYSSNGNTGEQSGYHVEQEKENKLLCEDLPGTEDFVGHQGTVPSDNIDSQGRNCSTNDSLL
The experiment in a line: β2 mediated cAMP production in H292 cells, AlphaScreen cAMP detection (10 minutes with test compound). In kind it is cell-based. Here is the method:
H292 cells were grown in RPMI (Roswell Park Memorial Institute) medium containing, 10% (v/v) FBS (foetal bovine serum) and 2 mM L-glutamine. Cells were grown in 225 cm2 flasks containing 25 mL media in a humidified incubator at 37° C., 5% CO2. Cells were harvested from the flask and passaged at a 1 in 10 dilution once per week.
The media from flasks containing H292 cells was removed, rinsed with 10 mL PBS (phosphate buffered saline) and replaced with 10 mL Accutase™ cell detachment solution. Flasks were incubated for 15 minutes in a humidified incubator at 37° C., 5% CO2. The cell suspension was counted and the cells re-suspended in RPMI media (containing 10% (v/v) FBS and 2 mM L-glutamine) at 0.05×10^6 cells per mL. 5000 cells in 100 μL were added to each well of a tissue-culture-treated 96-well plate and the cells incubated overnight in a humidified incubator at 37° C., 5% CO2. The culture media was removed, washed twice with 100 μL assay buffer and replaced with 50 μL assay buffer. Cells were rested at room temperature for 20 minutes after which time 25 μL of rolipram (1.2 mM made up in assay buffer containing 2.4% (v/v) dimethylsulphoxide) was added. Cells were incubated with rolipram for 10 minutes after which time test compounds (made up as ×4 concentrated stocks in assay buffer containing 4% (v/v) dimethylsulphoxide) were added and the cells were incubated for 10 minutes at room temperature. Final rolipram concentration in the assay was 300 μM and final vehicle concentration was 1.6% (v/v) dimethylsulphoxide. The reaction was stopped by removing supernatants, washing once with 100 μL assay buffer and replacing with 50 μL lysis buffer. The cell monolayer was frozen at −80° C. for 30 minutes (or overnight).
(§1) The concentration of cAMP (cyclic adenosine monophosphate) in the cell lysate was determined using the AlphaScreen™ methodology. The frozen cell plate was thawed for 20 minutes on a plate shaker then 10 μL of the cell lysate was transferred to a 96-well white plate. 40 μL of mixed AlphaScreen™ detection beads (containing equal volumes of donor beads (pre-incubated with biotinylated cAMP in the dark for 30 minutes) and acceptor beads), was added to each well and the plate incubated at room temperature for 10 hours in the dark. The AlphaScreen™ signal was measured using an EnVision spectrophotometer (Perkin-Elmer Inc.) with the recommended manufacturer's settings. cAMP concentrations were determined by reference to a calibration curve determined in the same experiment using standard cAMP concentrations (made up in lysis buffer in a 96-well tissue-culture-treated plate and frozen/thawed alongside the test samples) and detected using the same protocol. Concentration response curves for agonists were constructed to determine both the pEC50 and Intrinsic Activity.

The target in assay [3] is T2, β2 receptor. The assay is described as follows: Alternative adrenergic β2 mediated cAMP production in H292 cells (60 minutes with test compound). In kind it is cell-based. Here is the method: Alternative Adrenergic (β2 Mediated cAMP Production
H292 cells were grown in 225 cm2 flasks incubator at 37° C., 5% CO2 in RPMI medium containing, 10% (v/v) FBS (foetal bovine serum) and 2 mM L-glutamine.
Adherent H292 cells were removed from tissue culture flasks by treatment with Accutase™ cell detachment solution for 15 minutes. Flasks were incubated for 15 minutes in a humidified incubator at 37° C., 5% CO2. Detached cells were re-suspended in RPMI media (containing 10% (v/v) FBS and 2 mM L-glutamine) at 0.05×10^6 cells per mL. 5000 cells in 100 μL were added to each well of a tissue-culture-treated 96-well plate and the cells incubated overnight in a humidified incubator at 37° C., 5% CO2. The culture media was removed and cells were washed twice with 100 μL assay buffer and replaced with 50 μL assay buffer (HBSS solution containing 10 mM HEPES pH7.4 and 5 mM glucose). Cells were rested at room temperature for 20 minutes after which time 25 μL of rolipram (1.2 mM made up in assay buffer containing 2.4% (v/v) dimethylsulphoxide) was added. Cells were incubated with rolipram for 10 minutes after which time test compounds were added and the cells were incubated for 60 minutes at room temperature. The final rolipram concentration in the assay was 300 μM and final vehicle concentration was 1.6% (v/v) dimethylsulphoxide. The reaction was stopped by removing supernatants, washing once with 100 μL assay buffer and replacing with 50 μL lysis buffer. The cell monolayer was frozen at −80° C. for 30 minutes (or overnight).
as §1, with “using” for “using the”, “pre-incubated” for “(containing equal volumes of donor beads (pre-incubated”, “cAMP,” for “cAMP in the dark for 30 minutes) and acceptor beads),”, “concentrations.” for “concentrations (made up in lysis buffer in a 96-well tissue-culture-treated plate and frozen/thawed alongside the test samples) and detected using the same protocol.”, “constructed and data was fitted to a four parameter logistic equation” for “constructed”, “Activity. […]” for “Activity.”

Experimental findings from patent US20090203753A1, “7-(2-amino-1-hydroxy-ethyl)-4-hydroxybenzothiazol-2(3H)-one-derivatives as beta2 adrenoreceptor agonists” (AstraZeneca AB, priority 2005, published 2009) are described below.

T1 sequence (P14416 1-414 isoform P14416-2): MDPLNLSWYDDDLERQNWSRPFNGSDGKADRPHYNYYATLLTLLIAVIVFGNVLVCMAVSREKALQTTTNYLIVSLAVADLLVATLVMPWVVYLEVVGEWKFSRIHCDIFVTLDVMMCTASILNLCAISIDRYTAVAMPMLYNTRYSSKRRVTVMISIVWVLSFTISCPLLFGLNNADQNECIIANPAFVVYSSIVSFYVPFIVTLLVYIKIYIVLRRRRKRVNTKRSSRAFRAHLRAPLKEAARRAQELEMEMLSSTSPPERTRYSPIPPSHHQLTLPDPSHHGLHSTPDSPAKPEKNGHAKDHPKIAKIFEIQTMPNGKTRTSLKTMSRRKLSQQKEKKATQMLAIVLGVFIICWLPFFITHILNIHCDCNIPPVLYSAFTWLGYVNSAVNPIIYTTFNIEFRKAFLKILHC

With `CCN(CC)CCN(CCNC[C@H](O)c1ccc(O)c2[nH]c(=O)sc12)C(=O)CCOCCc1ccccc1` [Example 7, N-[2-(Diethylamino)ethyl]-N-(2-{[(2R)-2-hydroxy-2-(4-hydroxy-2-oxo-2,3-dihydro-1,3-benzothiazol-7-yl)ethyl]amino}ethyl)-3-(2-phenylethoxy)propanamide], the IC50 in assay [1] was 5010 nM. Moreover, the EC50 at β2 receptor [2] (cAMP, 10 minutes incubation with compound, 300 μM rolipram) is 2.51 nM; at β2 receptor [3] (cAMP, 60 minutes incubation with compound, 300 μM rolipram, read-out: β2 pEC50 (converted)) it was 3.98 nM. Also, at β2 receptor [2] (fraction relative to the maximum activity determined for formoterol, 10 minutes incubation), the “Intrinsic Activity” value is on record as 1.1. In addition, the “β2 Int Act” value at β2 receptor [3] (fraction relative to the maximum activity determined for formoterol, 60 minutes incubation) came out at 1.
